Reference: US10821177B2, “Induction of differential stress resistance and uses thereof” (University of Southern California, priority 2007, dated 2020)
Entries after “also recorded” stand apart in the source; their conditions may differ. Read-outs that look alike come from different tables or passages of the source.

Assays:
[1] = test system: sch9/aktΔRAS2^val19 cells; test: Yeast viability (CFU) in mixed cultures, chronic MMS treatment, RAS2val19-expressing cells; assay type: cell-based, S. cerevisiae; conditions: 48-hour treatment, 0.01% MMS
Experimental: (§1) Overnight cultures were diluted to OD600 0.1 into SDC medium. After 24 hours (day I), the appropriate strains were mixed 1:1 based on OD600 and incubated for 2 hours. The mixed cultures were then treated with either cyclophosphamide (CP, 0.1 M) or […] (MMS, 0.01%, Sigma) in medium or water (STS). For treatment SDC, MMS was introduced directly into the mixed culture to a final concentration of 0.01%. However, due to the high concentration of CP (0.1 M) used, CP was dissolved directly into the medium. To do so, mixed cultures were centrifuged for 5 minutes at 2,500 rpm and the media was collected, in which CP was dissolved to a concentration of 0.1 M. The mixed culture was then resuspended in the CP-containing medium. […] Viability was measured by quantifying colony-forming units (CFUs) every 24 hours by plating onto appropriate selective media. Viability of individual strains was measured using the same method as for the mixed cultures.
(§2) Overnight SDC cultures were diluted to OD600 0.1 into fresh SDC medium. […] Viability was measured as colony-forming units (CFUs) every 24 hours by plating onto appropriate selective media. Viability of individual strains was measured using the same method as for the mixed cultures. Relative survival shown was determined by the percentage of the ratio between the treated and untreated (control) cells.

[2] = test system: sch9/aktΔ; test: Yeast viability (CFU) in mixed cultures, chronic MMS treatment, sch9/aktΔ cells; assay type: cell-based, S. cerevisiae; conditions: 48-hour treatment, 0.01% MMS, mixed culture
Experimental: as §1, §2

[3] = test system: PC12 cells; test: IGF-I and paraquat oxidative toxicity, MTT, PC12 cells; assay type: cell-based, rat; conditions: 100 ng/ml IGF-I 24 hr, 100 μM paraquat
Experimental: (§3) FIG. 12. […] Primary rat cortical neurons or PC12 cells incubated in 1% serum and 4 g/L glucose were treated for 24 hr with vehicle, 100 μM of paraquat, 100 ng/ml of IGF-I followed by 100 μM of paraquat, or 100 ng/ml of IGF-1 alone and were then subjected to MTT reduction activity assay to assess cell viability. Data from 4 independent experiments are normalized to control and expressed as the mean±S.E.M.
(§4) Primary rat neurons and PC12 cells were treated with IGF-1 and paraquat to determine the effect of IGF-1 on oxidative stress. Cortical neurons were treated for 24 hours in Eagle's minimal essential medium (Invitrogen) supplemented with 21 mM glucose and 1% horse serum. PC12 cells were plated at 5×10^4 cells/well onto poly-D-lysine coated. 96-well plates and were grown for 24 hours in F12K 1% HS. Both types of cells were then treated with either 100 μM of paraquat, IGF-1 (100 ng/ml) followed 30 minutes later by paraquat (100 μM) or IGF-1 (100 ng/ml) alone in appropriate media. Survival was determined by the MTT assay and presented as percent ratio of treated to control.

[4] = test system: primary rat cortical neurons; test: IGF-I and paraquat oxidative toxicity, MTT, cortical neurons; assay type: cell-based; conditions: 100 ng/ml IGF-I 24 hr, 100 μM paraquat
Experimental: as §3
Primary neurons from embryonic day 18 Sprague-Dawley rat cerebral cortices were dissociated in neurobasal medium (Invitrogen) supplemented with 0.5 mM L-glutamine, 25 μM L-glutamic acid and 2% B-27 and plated at 640 cells/mm^2 in 96-well plates which were pre-coated with 10 microg/ml poly-D-lysine dissolved in Borax buffer (0.15 M, pH 8.4). Neurons were maintained at 37° C. in 5% CO2 in neurobasal medium supplemented with B-27 and 0.5 mM L-glutamine for 4 days.
as §4, with “Both types of cells were then treated with either 100 μM of paraquat, IGF-1 (100 ng/ml) followed 30 minutes later by paraquat (100 μM) or IGF-1 (100 ng/ml) alone in appropriate media.” left out

[5] = test system: C6 glioma cells; test: Cyclophosphamide cytotoxicity by LDH release in C6 glioma cells; assay type: cell-based, rat
Experimental: (§5) Primary mixed glial cells were obtained from the cerebral cortex of 1 to 3 day old Sprague Dawley rat pups (Charles River) as described before. Cells cultured for 10-14 days in DMEM/F12 medium with 10% fetal bovine serum (FBS) were used in assays. C6, A10-85, 9L and RG2 rat glioma cell lines and LN229 human glioma cell line and SH-SY5Y human neuroblastoma cell line were maintained in DMEM/F12 medium with 10% FBS at 37° C. under 5% CO2.
(§6) Cells were seeded into 96-well microliter plates at 20,000-30,000 cells/well and incubated for 2 days. Cells were washed with phosphate buffered saline (PBS) prior to treatments as indicated in the text. All treatments were performed at 37° C. under 5% CO2.
Glucose restriction was done by incubating cells in glucose free DMEM (Invitrogen) supplemented with either low glucose (0.5 gL) or normal glucose (1.0 gL) for 24 hours. Serum restriction was done by incubating cells in DMEMIF12 with either 10% or 1% FBS for 24 hours. IGF-I treatment was carried out by incubating cells for 48 hours in DMEM/F12 with 1% FBS and rhIGF-I (100 n g/ml, ProSpec-Tany TechnoGene, Rehovot, Israel), which is shown to be within the IGF-I level range for middle age humans. To antagonize IGF-I receptor activity, cells were incubated with neutralizing monoclonal anti-IGF-IR antibody (aIR3, 1 pg/ml; Calbiochem) in DMEM/F12 1% FBS for 24 hours.
(§7) Cytotoxicity was measured by either LDH release using the CytoTox 96 Non-Radioactive Cytotoxicity Assay kit (Promega) or the ability to reduce methylthiazolyldiphenyltetrazolium bromide (MTT). % LDH release was determined with reference to the maximum and background LDH release of control cells. […]
Cyclophosphamide (CP, Sigma) was used for in vitro chemotherapy studies. […] Cytotoxicity was measured by either lactate dehydrogenase released using the CytoTox 96 Non-Radioactive Cytotoxicity Assay kit (Promega) or the ability to reduce methylthiazolyldiphenyl-tetrazolium bromide (MTT). LDH released into the medium by lysed cells were measured with a 10-minute enzymatic assay that converts a tetrazolium salt (INT) into a red formazan product.

[6] = test system: cortical neurons from E18 rat embryos; conditions: pre-treatment with inhibitor
Experimental: FIG. 23. […] Cortical neurons from E18 rat embryos were cultured onto 96-well plates (A) or glass coverslips in 6-well plates (B). On 10-14 DIV, the neurons were pre-treated with MEK1/ERK1/2 inhibitors U0126 or SL327. Oxidative stress was induced by hydrogen peroxide or menadione. Cell viability was measured with MTT survival assay (A) or live/dead assay (B). C) % death was calculated from the number of dead (red) and live (green) cells.

[7] = test system: primary rat mixed glial cells
Experimental: as §5, §6
Glucose restriction was done by incubating cells in glucose free DMEM (Invitrogen) supplemented with either low glucose (0.5 gL) or normal glucose (1.0 gL) for 24 hours. Serum restriction was done by incubating cells in DMEMIF12 with either 10% or 1% FBS for 24 hours. […]
as §7
Cyclophosphamide (CP, Sigma) was used for in vitro chemotherapy studies. […] Cytotoxicity was measured by either lactate dehydrogenase released using the CytoTox 96 Non-Radioactive Cytotoxicity Assay kit (Promega) or the ability to reduce methylthiazolyldiphenyl-tetrazolium bromide (MTT). LDH released into the medium by lysed cells were measured with a 10-minute enzymatic assay that converts a tetrazolium salt (INT) into a red formazan product. A 96-well based colorimetric assay measured the amount of the red formazan formed, which is proportional to the number of dead cells. % LDH release was determined with reference to the maximum and background LDH release of control cells.

[8] = test system: primary rat mixed glial cells; test: Cyclophosphamide cytotoxicity by LDH release (serum restriction, IGF-I, aIR3) in primary glia; assay type: cell-based; conditions: 15 mg/ml CP, 10% serum
Experimental: as §5
Cells were seeded into 96-well microliter plates at 20,000-30,000 cells/well and incubated for 2 days. Cells were washed with phosphate buffered saline (PBS) prior to treatments as indicated in the text. All treatments were performed at 37° C. under 5% CO2. […]
as §7
Cyclophosphamide (CP, Sigma) was used for in vitro chemotherapy studies. […] Cytotoxicity was measured by either lactate dehydrogenase released using the CytoTox 96 Non-Radioactive Cytotoxicity Assay kit (Promega) or the ability to reduce methylthiazolyldiphenyl-tetrazolium bromide (MTT). […]

[9] = test system: LID mice; conditions: for mortality: 500 mg/kg cyclophosphamide i.p.
Experimental: Thirty-four to forty-two-week old LID and their control L/L-mice were used to evaluate the role of circulating liver-derived IGF-I in stress resistance. LID and L/L-mice were generated using the Cre/loxP system as described before. […] All mice were individually caged throughout the experiment and had access to food and water ad libitum. Both LID and L/L-mice were each injected 500 mg/kg of cyclophosphamide i.p. using 29G insulin syringes. Cyclophosphamide was prepared in saline at 40 mg/ml and warmed prior to injection. Mice were routinely monitored for weight loss and signs of pain and stress. Survival time was the main criterion for determining the effect of low circulating IGF-I on the resistance to high-dose cyclophosphamide. The statistical significance of differential survival between experimental groups was determined by Kaplan-Meier curves and log-rank test using GraphPad Prism 4 software (San Diego, Calif.).

[10] = test system: S. cerevisiae; assay type: cell-based; conditions: 48-hour treatment with CP (0.1 M), strains treated separately
Experimental: Overnight cultures were diluted to OD600 0.1 into SDC medium. After 24 hours (day I), the appropriate strains were mixed 1:1 based on OD600 and incubated for 2 hours. […] For treatment SDC, MMS was introduced directly into the mixed culture to a final concentration of 0.01%. However, due to the high concentration of CP (0.1 M) used, CP was dissolved directly into the medium. To do so, mixed cultures were centrifuged for 5 minutes at 2,500 rpm and the media was collected, in which CP was dissolved to a concentration of 0.1 M. The mixed culture was then resuspended in the CP-containing medium. For treatments in water (STS), mixed cultures were centrifuged for 5 minutes at 2,500 rpm and the media was replaced with either distilled/sterile water or drug-dissolved water. Viability was measured by quantifying colony-forming units (CFUs) every 24 hours by plating onto appropriate selective media. Viability of individual strains was measured using the same method as for the mixed cultures.

Compound: COS(C)(=O)=O [MMS, methyl methanesulfonate]
- sch9/aktΔRAS2^val19 cells that survived ([1]; mixed culture (Example I)): none
- sch9/aktΔRAS2^val19 cells that survived ([1]; mixed culture (Example II)): less than 5%
- sch9/aktΔ cells that survived [2]: great majority

Compound: IGF-I: rhIGF-I (ProSpec-Tany TechnoGene), 100 ng/ml
- sensitization to oxidative toxicity [3]: not in PC12 cells
- sensitization to oxidative toxicity [4]: sensitizes
- increase in the toxicity of CP to C6 glioma cells ([5]; 100 ng/ml IGF-I): minor increase; also recorded: did not increase

Compound: N#CC(=C(/N)Sc1ccccc1N)/C(C#N)=C(\N)Sc1ccccc1N [U0126]
- resistance of neurons to oxidative stress (hydrogen peroxide or menadione) [6]: protects neurons against oxidative stress

Compound: O=P1(N(CCCl)CCCl)NCCCO1 (stereo not drawn) [CP, cyclophosphamide]
- glial cells resistant ([7]; 12 mg/ml CP, 0.5 g/L glucose): 80%
- cells that survived ([7]; 12 mg/ml CP, 1 g/L glucose): 20%
- differential stress resistance of mammalian cells by the starvation-response methods ([7]; normal vs cancer cells): less than 10 fold
- toxicity to primary glial cells [8]: toxic
- toxicity to C6 glioma cells in 10% serum versus 1% serum ([5]; 15 mg/ml CP): as toxic
- average weight loss ([9]; LID mice, 500 mg/kg cyclophosphamide): 10%
- mortality ([9]; LID mice): 30%
- weight loss ([9]; control mice, 500 mg/kg cyclophosphamide): 20%
- mortality ([9]; control mice): 70%
- signs of toxicity in surviving mice ([9]; surviving LID mice): did not show any signs of toxicity
- toxicity to RAS2^val19 and wild type cells [10]: toxic
